One data set deals with CYP450. The note with it: at free concentrations observed in humans; cited from earlier work.
Details of data set [1]: species or system dogs. The conditions noted are these: dog, in vivo, po, 30 mg/kg, 1 week. Here is the method:
(§1) Consequently, when EPA-E is administered orally to humans, it would appear that it is well absorbed, even though the unchanged ethyl ester form is not detected, and the free form (EPA) is only detected at a very low level, in the blood. Due to this absorption mechanism of essential fatty acids, the administered EPA-E exists as a blood-constituent fatty acid in the total lipids. In fact, according to the approval package document of Lovaza®, the free form of EPA is undetectable in the circulation (<1 μM) following an oral dose of 4 g of Omacor® (a mixture of the ethyl esters of EPA and DHA) Following oral administration of EPA-E, EPA, DPA and DHA were isolated and identified as metabolites in tissues and plasma. EPA, DPA and DHA were incorporated into TG and PL. Radioactivity was primarily excreted in expired air (44%) after single oral administration at 30 mg/kg EPA-E with minimal excretion in bile and urine (˜3%) and approximately 20% excreted in feces.

Data set [2] is described as follows: Hydrolysis in small intestine homogenates, lymph, plasma and liver homogenates. The data set is classed as in vitro ADME. The note with it: plasma and liver homogenates of the rat.
Data set [3] in a line: ADME of 14C-EPA-E in rats (absorption, distribution, metabolites, excretion). The data set is classed as in vivo. Here is the method: EPADEL® is a product containing ethyl all-cis-5,8,11,14,17-eicosapentaenoate (EPA-E), one of the n-3 essential fatty acids. The preclinical absorption, distribution, metabolism and excretion (ADME) characteristics of EPA-E have been determined primarily in rats.
After administration of ^14C-EPA-E into the ligated intestine of rats, the residual radioactivity in the intestine at 24 hours was only 4.6% of the administered dose. Radioactivity transferred to the plasma and lymph was mainly detected in the triglyceride (TG) fraction in the early phase after dosing, while distribution to the free fatty acid (FFA) fraction was slight at all timepoints. […] Orally administered EPA-E was primarily incorporated in adrenal gland lipids as cholesterol esters of the fatty acids eicosapentaenoic acid (EPA), docosapentaenoic acid (DPA) and docosahexaenoic acid (DHA).
as §1
Renal excretion was the elimination route for several minor highly polar metabolites (<0.4%), but EPA-E, EPA, DPA or DHA were not detected in the urine. In feces, EPA-E and EPA, evidently derived from the unabsorbed drug, were detected; however, no DPA or DHA was detected in the feces.
In the total lipid fraction of the liver, the radioactivity originated mainly from EPA, DPA and DHA. Thus, it is considered that EPA, DPA and DHA are the predominant metabolites of ^14C-EPA-E in tissues, as constituent fatty acids of the total lipid fraction.

Turning to `CC/C=C\C/C=C\C/C=C\C/C=C\C/C=C\CCCC(=O)O` [EPA, eicosapentaenoic acid], the CYP450 inhibition entry in the data set on CYP450 is recorded as “unlikely to inhibit CYP450”.

Regarding `CC/C=C\C/C=C\C/C=C\C/C=C\C/C=C\CCCC(=O)OCC` [^14C-EPA-E], in data set [1], the “radioactivity excreted in the urine” value turned out to be 1.0% and the “radioactivity recovered in the feces” value is listed as 19.2%. In addition, in data set [2], the hydrolysis result is “hydrolyzed rapidly”. Moreover, the “residual radioactivity in the intestine” value in data set [3] (administration into the ligated intestine of rats, at 24 hours) was 4.6 % of the administered dose. Also, the “unchanged EPA-E in plasma or tissues” value in data set [3] (oral administration to the rat) was “no unchanged EPA-E was found”. Moreover, the “metabolites in the total lipid fraction of plasma and tissues” value in data set [3] (oral administration to the rat, liver, fat, heart and brain) was “EPA, DPA and DHA were detected as metabolites”. Further, in data set [3] (rats), the “distribution of radioactivity in body tissues” value was “relatively high levels were observed especially in the brown fat, adrenal, liver and pancreas”. For the same molecule, the absorption entry in data set [3] (single oral dose 30-1000 mg/kg, rats) was “well-absorbed, mainly through the lymphatic route”.

The values above are taken from patent US20160213639A1, “COMPOSITIONS AND METHODS FOR TREATING NON-ALCOHOLIC STEATOHEPATITIS” (MOCHIDA PHARMACEUTICAL CO., LTD., priority 2013, published 2016).
